Measured values from patent publication US12156523B2 (priority 2017, dated 2024).

How the values were obtained:
Type in all cases: in vivo
rice (cultivar: Jikkoku) = experiment: Barrier to growth of rice (phytotoxicity, Example 18); conditions: untreated plant length set as 100; 0.2 mg/mL acetone solution diluted 10-fold, 0.25 mL per 1 mL of soil; first leaf stage; comparative compounds (Table 38)
Protocol: The acetone solutions of each example compound and compounds described in the prior art documents shown in the below-mentioned Table 38 (hereinafter, referred to as compounds of Comparative Examples 1 to 5, respectively) were prepared such that the content thereof became 0.2 mg/mL, and then diluted to 10-fold with water to be subjected to conducting test. 0.25 mL of the diluted solution per 1 mL of the soil was made to be absorbed in the soil. Then, rice seeds (cultivar: Jikkoku) subjected to forcing to germination were seeded in the soil to be cultivated in plant cultivation chambers. The plant length of the rice grown to the first leaf stage was measured, and the ratio of the plant length, relative to the untreated plant length set as 100, (hereinafter, referred to as “the ratio of plant length relative to untreated plant length”) was calculated. The presence or absence of the barrier to growth was determined from the calculated ratio.

Pyricularia oryzae [1] = experiment: whole plant or invertebrate; conditions: soil, read-out: Control value (number of lesions at the second leaf)
[2] = tested on: cucumber bacterial spot disease; experiment: Activity against cucumber bacterial spot disease (Example 17); conditions: cucumber cv. Natsusuzumi; wettable powder diluted 6666-fold, 20 mL per pot absorbed in the soil; 28 days after settled planting
Protocol: Wettable powders of the example compound 1-134 were prepared in accordance with the below-mentioned Preparation Example 1. The wettable powders were diluted to 6666-fold with water, and then 20 mL of the diluted solution per pot was applied to cucumber (cultivar: Natsusuzumi) cultivated to the third leaf stage in pots by making the diluted solution to be absorbed in the soil, and then the cucumber was subjected to settled planting. 28 days after the settled planting, the number of lesions formed at the 11th true leaves to the 20th true leaves were counted. The control value was calculated from the obtained number of lesions in accordance with the below-mentioned mathematical formula. Control value=((the number of lesions at untreated plants −the number of lesions at treated plants)/the number of lesions at untreated plants)×100

Pyricularia oryzae [3] = experiment: whole plant or invertebrate; conditions: foliar, read-out: Control value (number of lesions at the second leaf)
wheat brown rust = experiment: Activity against wheat brown rust (Example 14); conditions: wettable powder (Preparation Example 1) diluted 1000-fold, sprayed twice at 1 L/m^2, examined approx. 4 weeks after second spraying
Protocol: Wettable powders of the example compound 1-135 were prepared in accordance with the below-mentioned Preparation Example 1, followed by diluting the wettable powders to 1000-fold with water to prepare spraying liquids. The prepared spraying liquid was sprayed onto wheat twice at the blooming stage and 10 days prior to the blooming stage at a liquid volume of 1 L/m^2. The lesions on the flag leaf were examined in accordance with the below-mentioned indexes approximately 4 weeks after the second spraying application. The severity was calculated based on the indexes, and the control value was calculated from the obtained severity in accordance with the below-mentioned mathematical formula.
0: No lesions were observed.
1: 1 to 3 lesions were observed.
2: 4 to 10 lesions were observed.
3: 11 to 20 lesions were observed.
4: 21 or more lesions were observed, and the area of lesions was less than half of the leaf surface.
5: 21 or more lesions were confirmed, and the area of lesions was half or more of the leaf surface. Control value=((the severity at untreated plants −the severity at treated plants)/the severity at untreated plants)×100

O=C(O)c1cc(Cl)nc(Cl)c1 [Comparative Example 1]
Ratio of plant length relative to untreated plant length (rice (cultivar: Jikkoku)): 49

C#CCOC(=O)c1cc(Cl)nc(Cl)c1 [Comparative Example 2]
Ratio of plant length relative to untreated plant length (rice (cultivar: Jikkoku)): 52

O=C(NCCc1ccccc1)c1cc(Cl)nc(Cl)c1 [Comparative Example 3]
Ratio of plant length relative to untreated plant length (rice (cultivar: Jikkoku)): 45

O=C(COC(=O)c1cc(Cl)nc(Cl)c1)c1ccccc1 [Comparative Example 4]
Ratio of plant length relative to untreated plant length (rice (cultivar: Jikkoku)): 64

O=C(OCc1ccc(Cl)nc1)c1cc(Cl)nc(Cl)c1 [Comparative Example 5]
Ratio of plant length relative to untreated plant length (rice (cultivar: Jikkoku)): 66

CC(C)Oc1cccc(NC(=O)c2cc(F)nc(F)c2)c1 [Example 1-134]
pest or weed control at 10 µg/mL (Pyricularia oryzae [1]): ≥ 80%
Control value (number of lesions at 11th to 20th true leaves) [2]: ≥ 60
pest or weed control at 25 ppm (Pyricularia oryzae [3]): ≥ 80%
pest or weed control at 200 ppm (Pyricularia oryzae [3]): ≥ 80%

COc1cccc(NC(=O)c2cc(F)nc(F)c2)c1 [Example 1-135]
pest or weed control at 10 µg/mL (Pyricularia oryzae [1]): ≥ 80%
Control value (severity on the flag leaf) (wheat brown rust): ≥ 50
pest or weed control at 25 ppm (Pyricularia oryzae [3]): ≥ 80%
pest or weed control at 200 ppm (Pyricularia oryzae [3]): ≥ 80%

CC(=O)c1cccc(NC(=O)c2cc(F)nc(F)c2)c1 [Example 1-190]
pest or weed control at 10 µg/mL (Pyricularia oryzae [1]): ≥ 80%
pest or weed control at 200 ppm (Pyricularia oryzae [3]): ≥ 80%

O=C(Nc1cccc(C(F)(F)F)c1)c1cc(F)nc(F)c1 [Example 1-191]
pest or weed control at 10 µg/mL (Pyricularia oryzae [1]): ≥ 80%
pest or weed control at 200 ppm (Pyricularia oryzae [3]): ≥ 80%

O=C(Nc1cccc(O)c1)c1cc(F)nc(F)c1 [Example 1-193]
pest or weed control at 10 µg/mL (Pyricularia oryzae [1]): ≥ 80%
pest or weed control at 200 ppm (Pyricularia oryzae [3]): ≥ 80%

O=C(Oc1cccc2ccccc12)c1cc(F)nc(F)c1 [Example 1-202]
pest or weed control at 10 µg/mL (Pyricularia oryzae [1]): ≥ 80%
pest or weed control at 200 ppm (Pyricularia oryzae [3]): ≥ 80%

N#Cc1ccc(OC(=O)c2cc(F)nc(F)c2)cc1 [Example 1-204]
pest or weed control at 10 µg/mL (Pyricularia oryzae [1]): ≥ 80%
pest or weed control at 200 ppm (Pyricularia oryzae [3]): ≥ 80%

COc1ccccc1OC(=O)c1cc(F)nc(F)c1 [Example 1-210]
pest or weed control at 10 µg/mL (Pyricularia oryzae [1]): ≥ 80%
pest or weed control at 200 ppm (Pyricularia oryzae [3]): ≥ 80%

Fc1cc(C2=NCCO2)cc(F)n1 [Example 4-4]
pest or weed control at 10 µg/mL (Pyricularia oryzae [1]): ≥ 80%
pest or weed control at 200 ppm (Pyricularia oryzae [3]): ≥ 80%
